Measurements as given in patent US11918597B2, “Triple combination therapies for anti-aging” (LUNELLA BIOTECH, INC., priority 2018, dated 2024).
pIC50: −log10 of the molar value. Like-named read-outs stand apart in the source and are kept apart here.

Experiments:
CSCs = assay: CSC propagation / CSC inhibition activity (cell line not stated); format: cell-based
MCF7 cells [1] = assay: Mammosphere formation assay (CSC propagation); format: cell-based, human; settings: for inhibition at 250 µM: suspension treatment 5-days, doxycycline 1 μM, azithromycin 1 μM, Vitamin C 250 μM, read-out: MFE (% Inhibition ± SD); for pIC50: MCF7 cells (FIG. 15), read-out: half maximal inhibitory concentration (IC50), mammosphere assay
Method: The following paragraphs discuss laboratory data and analysis for select embodiments of the present approach. Doxycycline and azithromycin were tested alone and in combination at low concentrations to evaluate the resulting inhibitory effect on mammosphere formation. FIGS. 1A-1C summarize mammosphere formation data for varying concentrations and combinations.
The temporal effects of pre-treatment on the efficacy of the present approach have been evaluated in the pre-clinical setting, using CSC propagation as the measurement. […] This may be due to MCF7 cells' ability to induce oxidative stress, driving an anti-oxidant response. Given these […] results, it appears embodiments of the present approach that simultaneously co-administer all three therapeutic agents appear to have the most significant impact on the CSC population, and are preferred. […] However, some embodiments may call for administering therapeutic agents within a narrow window, such as 1-3 hours, over multiple days (e.g., 3-7 days in some embodiments, 4-14 days in some embodiments). The antibiotics may be administered in oral form (e.g., pill or tablet), while the Vitamin C is administered intravenously in some embodiments. In others, all three therapeutic agents may be administered orally, either as separate pills or tabs, or as a single concoction containing each therapeutic agent.
Mammosphere Formation Assay: A single cell suspension was prepared using enzymatic (lx Trypsin-EDTA, Sigma Aldrich, #T3924), and manual disaggregation (25 gauge needle). Cells were plated at a density of 500 cells/cm2 in mammosphere medium (DMEM-F12+B27+20 ng/ml EGF+PenStrep) under non-adherent conditions, in culture dishes pre-coated with (2-hydroxyethylmethacrylate) (poly-HEMA, Sigma, #P3932), called “tumor-sphere plates”. Vehicle alone (DMSO) control cells were processed in parallel. Cells were grown for 5 days and maintained in a humidified incubator at 37° C. After 5 days of culture, 3D mammospheres >50 μm were counted using an eye piece (“graticule”), and the percentage of cells plated which formed spheres was calculated and is referred to as percent mammosphere formation (MFE, and was normalized to one (1=100% MSF).

MCF7 cells [2] = assay: Metabolic flux analysis (Seahorse XFe96, OCR and ECAR); format: cell-based, human; settings: MCF7 monolayers pre-treated 3-days, doxycycline 1 μM, azithromycin 1 μM, Vitamin C 250 μM as applicable
Method: Metabolic Flux Analysis: Real-time oxygen consumption rates (OCR) and extracellular acidification rates (ECAR) rates in MCF7 cells were determined using the Seahorse Extracellular Flux (XFe96) analyzer (Seahorse Bioscience, USA). Briefly, 1.5×10^4 cells per well were seeded into XFe96 well cell culture plates, and incubated overnight to allow cell attachment. Then, cells were treated with antibiotics for 72 h. Vehicle-alone control cells were processed in parallel. After 72 hours of incubation, cells were washed in pre-warmed XF assay media (or for OCR measurement, XF assay media supplemented with 10 mM glucose, 1 mM Pyruvate, 2 mM L-glutamine and adjusted at 7.4 pH). Cells were then maintained in 175 μL/well of XF assay media at 37° C., in a non-CO2 incubator for 1 hour. During the incubation time, we loaded 25 μL of 80 mM glucose, 9 μM oligomycin, and 1M 2-deoxyglucose (for ECAR measurement) or 10 μM oligomycin, 9 μM FCCP, 10 μM rotenone, 10 μM antimycin A (for OCR measurement), in XF assay media into the injection ports in the XFe96 sensor cartridge. Measurements were normalized by protein content (Bradford assay). Data sets were analyzed using XFe96 software and GraphPad Prism software, using one-way ANOVA and Student's t-test calculations. All experiments were performed in quintuplicate, three times independently.

rat heart = settings: conditions of hypoxia, Vitamin C alone; cited from earlier work
U937 cells = settings: 15 minutes, media containing 3 μM Vitamin C; cited from earlier work
[3] = oral administration; cited from earlier work
senescent fibroblasts = assay: Senolytic activity on senescent fibroblasts; format: cell-based; settings: azithromycin by itself
Description: Embodiments of the present approach also have implications for improving health-span and life-span. Azithromycin, by itself, is an FDA-approved drug with remarkable senolytic activity that targets and removes senescent fibroblasts, such as myo-fibrobasts. This senolytic activity has considerable efficiency, approaching nearly 97%. The accumulation of pro-inflammatory senescent cells is thought to be the primary cause of many aging-associated diseases, such as heart disease, diabetes, dementia and cancer, for example. Since cancer-associated fibroblasts (CAFs) are senescent myo-fibroblasts, with tumor promoting activity, triple combination embodiments of the present approach with Azithromycin may also effectively target the glycolytic tumor stroma of aggressive and metastatic cancers, especially those bearing the metabolic hallmarks of the “Reverse Warburg Effect.” In some embodiments, the composition prevents acquisition of a senescence-associated secretory phenotype. In some embodiments, the composition facilitates tissue repair and regeneration. In some embodiments, the composition increases at least one of organismal life-span and health-span.

senescent MRC-5 cells = assay: BrdU-induced senescence senolytic assay (SRB / xCELLigence); format: cell-based, human; settings: BrdU-treated MRC-5 fibroblasts; even at concentrations as low as 25 μM
Method: (§1) Bromodeoxyuridine (5-bromo-2′-deoxyuridine), also known as BrdU, was used to induce senescence. BrdU is an analog of the nucleoside thymidine commonly used to identify proliferating cells. BrdU induces controlled DNA damage, and drives cells towards senescence with high efficiency. The BrdU assay of the present approach calls for subjecting normal fibroblasts to prolonged culture (8-days) in the presence of BrdU at 100 μM to induce controlled DNA-damage and senescence. […] Then, isogenically-matched cultures of normal and senescent fibroblasts may be used for drug screening to identify drugs having senolytic activity. Senolytic activity may be detected using the sulforhodamine B assay, also known in the art as the SRB assay. This assay measures the amount of protein remaining attached to the tissue-culture dishes, and is a surrogate marker for cell viability. This approach may be used to rapidly screen compounds, including clinically-approved drugs, such as, for example, antibiotics. For example, in embodiments described herein, the present approach was used to screen erythromycin family members, including azithromycin and roxithromycin, among other compounds and conjugates. It should be appreciated that the present approach may be used to screen other compounds.

bulk MCF7 cells = assay: Cell viability, bulk MCF7 cells; format: cell-based, human; settings: range of concentrations, up to 20 μM
Description: Embodiments of therapeutic agents conjugated with targeting signals have shown less toxicity in bulk cancer cells and normal fibroblasts compared to unconjugated therapeutic agents. For example, FIGS. 17A and 17B show cell viability data for doxycycline and the doxycycline-myristate conjugate shown as compound [1], for bulk MCF7 cells and bulk BJ cells, respectively. The data represents cell viability expressed as a percentage of a control. […] Similar behavior has been seen in other therapeutic agents conjugated with targeting signals.

bulk BJ cells = assay: Cell viability, bulk BJ cells; format: cell-based, human; settings: bulk BJ cells (normal fibroblasts); range of concentrations, up to 20 μM
Method: as §1, with “For example, in embodiments described herein, the present approach was used to screen erythromycin family members, including azithromycin and roxithromycin, among other compounds and conjugates. It should be appreciated that the present approach may be used to screen other compounds.” left out
Embodiments of therapeutic agents conjugated with targeting signals have shown less toxicity in bulk cancer cells and normal fibroblasts compared to unconjugated therapeutic agents. […] The data represents cell viability expressed as a percentage of a control. […]

With `CCCCCCCCCCCCCC(=O)N(C)[C@H]1C[C@@H](C)O[C@@H](O[C@@H]2[C@@H](C)[C@H](O[C@H]3C[C@@](C)(OC)[C@@H](O)[C@H](C)O3)[C@@H](C)C(=O)O[C@H](CC)[C@@](C)(O)[C@H](O)[C@@H](C)N(C)C[C@H](C)C[C@@]2(C)O)[C@@H]1O` [Compound [15]] the “potency for CSCs compared to azithromycin alone” value (CSCs) was “improved” and the “selectivity for CSCs compared to azithromycin alone” value (CSCs) was “improved”.

For `O=C1O[C@H]([C@@H](O)CO)C(O)=C1O` [Vitamin C, Ascorbic Acid], the inhibition at 250 µM (MCF7 cells [1]; Homo sapiens, MCF7, Monolayer pre-treatment D + A 7-days) was 39.1%, the inhibition at 250 µM (MCF7 cells [1]; Homo sapiens, MCF7, Monolayer pre-treatment Vit C 7-days) was 49.2% and the “ATP production / ATP levels” value (MCF7 cells [2]) was “significantly increased”. For the same molecule, the “basal and maximal respiration” value (MCF7 cells [2]) was “significantly increased”, the “glycolysis / glycolytic function (ECAR)” value (MCF7 cells [2]) was “significantly increased” and the glycolytic reserve (MCF7 cells [2]) was “significantly increased”. For the same molecule, the glycolytic reserve capacity (MCF7 cells [2]) was “decreasing”, the “oxidative mitochondrial metabolism (OCR, mitochondrial oxygen consumption)” value (MCF7 cells [2]) was “significantly increased” and the “ATP production / ATP levels” value (MCF7 cells [2]; listed as low-dose Vitamin C) was “increased”. For the same molecule, the “basal and maximal respiration” value (MCF7 cells [2]; listed as low-dose Vitamin C) was “increased”, the “glycolysis / glycolytic function (ECAR)” value (MCF7 cells [2]; listed as low-dose Vitamin C) was “increased” and the “oxidative mitochondrial metabolism (OCR, mitochondrial oxygen consumption)” value (MCF7 cells [2]; listed as low-dose Vitamin C) was “increases”. The “increase of mitochondrial ATP production” value (rat heart) was “up to 1.5 fold”, the “Vitamin C level reached in the mitochondria” value (U937 cells) was 5 mM and the “peak Vitamin C concentration in blood/serum/plasma” value [3] was “about 250 μM”.

In the case of `CC[C@H]1OC(=O)[C@H](C)[C@@H](O[C@H]2C[C@@](C)(OC)[C@@H](O)[C@H](C)O2)[C@H](C)[C@@H](O[C@@H]2O[C@H](C)C[C@H](N(C)C)[C@H]2O)[C@](C)(O)C[C@@H](C)CN(C)[C@H](C)[C@@H](O)[C@]1(C)O` [azithromycin], the “inhibition of mammosphere formation” value (MCF7 cells [1]; alone at low concentrations (0.1 μM and 1 μM)) was “little or no effect” and the “senolytic activity, efficiency of removing senescent fibroblasts” value (senescent fibroblasts) was roughly 97%.

For `CCCCCCCCCCCCCC(=O)N(C)[C@H]1C[C@@H](C)O[C@@H](O[C@@H]2[C@@H](C)[C@H](O[C@@H]3C[C@@](C)(OC)[C@@H](O)[C@H](C)O3)[C@@H](C)C(=O)O[C@H](CC)[C@@](C)(O)[C@H](O)[C@@H](C)N(C)C[C@H](C)C[C@@]2(C)O)[C@@H]1O` [azithromycin—fatty acid conjugate, N-[(2S,3R,4S,6R)-2-[ [(2R,3S,4R,5R,8R,10R,11R,12S,13S,14R)-2-ethyl-3,4,10-trihydroxy-13-[(2S,4R,5S,6S)-5-hydroxy-4-methoxy-4,6-dimethyl-tetrahydropyran-2-yl]oxy-3,5,6,8,10,12,14-heptamethyl-15-oxo-1-oxa-6-azacyclopentadec-11-yl]oxy]-3-hydroxy-6-methyl-tetrahydropyran-4-yl]-N-methyl-tetradecanamide], the “senescent MRC-5 cells targeted (final cell index after 5 days, xCELLigence)” value (senescent MRC-5 cells) was roughly 100%.

For `CCCCCCCCCCCCCC(=O)Nc1ccc2c(c1O)C(=O)C1=C(O)[C@]3(O)C(=O)C(C(N)=O)=C(O)[C@@H](N(C)C)C3[C@@H](O)C1[C@H]2C` (stereo partly drawn) [doxycycline-myristate conjugate, (4S,5S,6R,12aS)-4-(dimethylamino)-3,5,10,12,12a-pentahydroxy-6-methyl-1,11-dioxo-9-(tetradecanoylamino)-4a,5,5a,6-tetrahydro-4H-tetracene-2-carboxamide], the inhibition at 2.5 µM (MCF7 cells [1]; Homo sapiens, MCF7, 2.5 μM, read-out: inhibition of MCF7 mammosphere formation relative to the control) was 40 to 60%, the pIC50 (MCF7 cells [1]; Homo sapiens) was 5.46 and the “potency in mammosphere assay compared with doxycycline (FIG. 14)” value (MCF7 cells [1]; MCF7, 1.5 μM, 3 μM, 6 μM, 12 μM) was “more potent than unconjugated doxycycline”. For the same molecule, the “toxicity (cell viability as percentage of control)” value (bulk MCF7 cells) was “less toxic than doxycycline”, the “CSC inhibition activity compared with the unconjugated antibiotic” value (CSCs; fatty acid moiety is myristate (n is 12)) was “better CSC inhibitory properties” and the “toxicity (cell viability as percentage of control)” value (bulk BJ cells) was “less toxic than doxycycline”.

With `C[C@H]1c2cccc(O)c2C(=O)C2=C(O)[C@]3(O)C(=O)C(C(N)=O)=C(O)[C@@H](N(C)C)[C@@H]3[C@@H](O)[C@@H]21` [doxycycline] the pIC50 (MCF7 cells [1]; Homo sapiens) was 4.74.
